Laboratory results taken from the NIST ThermoML archive (doi:10.1016/j.jct.2011.02.008).

Settings: Liquid, Vibrating tube method

C1CCCCC1 [cyclohexane]
mass density [kg/m3]
Settings | 288.15 K | 298.15 K | 308.15 K | 318.15 K | 328.15 K | 338.15 K | 348.15 K | 358.15 K
100 kPa | 782.7 | 773.2 | 763.6 | 754 | 744.4 | 734.5 | 724.6 | 714.3
1000 kPa | 783.7 | 774 | 764.5 | 755 | 745.4 | 735.6 | 725.7 | 715.6
5000 kPa | 787 | 777.6 | 768.2 | 759 | 749.7 | 740.2 | 730.8 | 720.9
10000 kPa | 790.7 | 781.8 | 772.6 | 763.7 | 754.7 | 745.7 | 736.5 | 727.2
15000 kPa | 794.1 | 785.6 | 776.8 | 767.9 | 759.5 | 750.7 | 741.9 | 732.9
20000 kPa | – | 789.3 | 780.8 | 772.4 | 764 | 755.5 | 747 | 738.3
25000 kPa | – | 792.9 | 784.6 | 776.4 | 768.2 | 760 | 751.7 | 743.3
30000 kPa | – | 796.8 | 788.3 | 780.3 | 772.3 | 764.3 | 756.2 | 748.1
35000 kPa | – | 799.7 | 791.8 | 784.1 | 776.1 | 768.4 | 760.5 | 752.6
40000 kPa | – | – | 795.2 | 787.7 | 779.9 | 772.3 | 764.6 | 757
45000 kPa | – | – | – | 791.1 | 783.5 | 776 | 768.6 | 761.1
50000 kPa | – | – | – | 794.4 | 787 | 779.7 | 772.3 | 765
55000 kPa | – | – | – | – | – | 783.2 | 776 | 768.9
